Test results published in article PMC9445081, “Structural basis for recognition of N-formyl peptides as pathogen-associated molecular patterns” (Nature Communications, 2022).
Positions count from the first letter of the chain named.

How the values were obtained:
Type in all cases: cell-based
[1] = molecular target: T1, FPR1 WT (Homo sapiens, UniProt P21462); experiment: cAMP inhibition assay, WT FPR1
T1 construct: expressed in transfected cells; host or cells: HeLa cells, transient, pcDNA3.1(+)
T1 sequence (P21462 1-350): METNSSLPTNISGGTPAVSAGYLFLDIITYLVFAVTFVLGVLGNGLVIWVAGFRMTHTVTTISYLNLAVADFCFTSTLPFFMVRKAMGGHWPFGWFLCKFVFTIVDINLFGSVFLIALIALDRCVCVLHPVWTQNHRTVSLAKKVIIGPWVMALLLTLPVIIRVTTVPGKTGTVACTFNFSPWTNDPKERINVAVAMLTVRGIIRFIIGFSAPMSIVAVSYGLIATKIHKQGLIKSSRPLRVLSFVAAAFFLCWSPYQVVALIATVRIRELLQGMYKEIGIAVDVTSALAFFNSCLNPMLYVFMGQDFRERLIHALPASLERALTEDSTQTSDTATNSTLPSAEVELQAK
Text: (§1) FPR1 cDNA in the pcDNA3.1(+) vector (Invitrogen) was used as a template for gene manipulation. The mutations of FPR1 were introduced in the receptor through overlap extension PCR with elaborately designed primers (GENEWIZ, Suzhou, China). The sequences of the primers were listed in Supplementary Table 2. Two fragments of FPR1 (separated at mutated positions) were assembled into pre-cut pcDNA3.1(+) vectors with the ClonExpress Ultra One Step Cloning Kit (Vazyme Biotech, C115). Plasmids with FPR1 mutations were confirmed by DNA sequencing (GENEWIZ).
(§2) For functional studies, FPR1 and its mutants were expressed in HeLa cells as above. The cells were resuspended in HBSS buffer plus 5 mM HEPES, 0.1% BSA (w/v) and 0.5 mM 3-isobutyl-1-methylxanthine and seeded into 384-well plates. […] AG-14 was synthesized by Sungening Biotechnology (Shenzhen, China). […] Intracellular cAMP levels were measured with the LANCE Ultra cAMP kit (PerkinElmer, TRF0263) following the manufacturer’s instructions. […] Intracellular cAMP levels were calculated according to the TR-FRET signals of the samples and cAMP standards.
(§3) The data were analyzed with Prism 6.0 (GraphPad, San Diego, CA). […] For cell surface expression, data points were presented as the percentages (mean ± SEM) of the flow cytometry fluorescence signals of WT FPR1. […]

[2] = molecular target: T2, FPR1 R201A (Homo sapiens, UniProt P21462, R201A); experiment: cAMP inhibition assay, FPR1 R201A
T2 construct: expressed in transfected cells; host or cells: HeLa cells, transient, pcDNA3.1(+)
T2 sequence (P21462 1-350 R201A): T1 sequence (P21462 1-350) with R201A
Text: as §1, §2, §3

[3] = molecular target: T3, FPR1 R205A (Homo sapiens, UniProt P21462, R205A); experiment: cAMP inhibition assay, FPR1 R205A
T3 construct: expressed in transfected cells; host or cells: HeLa cells, transient, pcDNA3.1(+)
T3 sequence (P21462 1-350 R205A): T1 sequence (P21462 1-350) with R205A
Text: as §1
as §2, with “China). Different concentrations of the ligands were prepared plus a fixed dose of forskolin with the buffer above.” for “China).”
(§4) The data were analyzed with Prism 6.0 (GraphPad, San Diego, CA). For dose-response analysis, the curves were plotted with the log[agonist] vs. response equation (three parameters) in the software. Data points were presented as the percentages (mean ± SEM) of the maximal cAMP level for each construct, from at least three independent experiments, as indicated in figure legends. The pEC50 values were the negative logarithm of the EC50 values, which were obtained from the dose-response curves. For cell surface expression, data points were presented as the percentages (mean ± SEM) of the flow cytometry fluorescence signals of WT FPR1. For statistical comparison, a p-value of 0.05 or lower is considered statistically significant.

[4] = molecular target: T4, FPR1 F291A (Homo sapiens, UniProt P21462, F291A); experiment: cAMP inhibition assay, FPR1 F291A
T4 construct: expressed in transfected cells; host or cells: HeLa cells, transient, pcDNA3.1(+)
T4 sequence (P21462 1-350 F291A): T1 sequence (P21462 1-350) with F291A
Text: as §1
as §2, with “China). Different concentrations of the ligands were prepared plus a fixed dose of forskolin with the buffer above.” for “China).”
as §4

[5] = molecular target: T5, FPR1 R84A (Homo sapiens, UniProt P21462, R84A); experiment: cAMP inhibition assay, FPR1 R84A; conditions: inhibiting forskolin-elevated cAMP, HeLa cells, read-out: pEC50, mean ± SEM (converted)
T5 construct: expressed in transfected cells; host or cells: HeLa cells, transient, pcDNA3.1(+)
T5 sequence (P21462 1-350 R84A): T1 sequence (P21462 1-350) with R84A
Text: as §1
as §2, with “China). Different concentrations of the ligands were prepared plus a fixed dose of forskolin with the buffer above.” for “China).”
as §4

[6] = molecular target: T6, FPR1 W254A (Homo sapiens, UniProt P21462, W254A); experiment: cAMP inhibition assay, FPR1 W254A; conditions: inhibiting forskolin-elevated cAMP, HeLa cells, read-out: pEC50, mean ± SEM (converted)
T6 construct: expressed in transfected cells; host or cells: HeLa cells, transient, pcDNA3.1(+)
T6 sequence (P21462 1-350 W254A): T1 sequence (P21462 1-350) with W254A
Text: as §1, §2, §3

[7] = molecular target: T7, FPR1 Y257A (Homo sapiens, UniProt P21462, Y257A); experiment: cAMP inhibition assay, FPR1 Y257A; conditions: inhibiting forskolin-elevated cAMP, HeLa cells, read-out: pEC50, mean ± SEM (converted)
T7 construct: expressed in transfected cells; host or cells: HeLa cells, transient, pcDNA3.1(+)
T7 sequence (P21462 1-350 Y257A): T1 sequence (P21462 1-350) with Y257A
Text: as §1, §2, §3

With COc1cc(/C=N/NC(=O)c2ccc3c(c2)OCO3)ccc1OCc1ccccc1 [AG-14] the EC50 [1] was 398 nM, the EC50 [2] was 1580 nM and the EC50 [3] was 1000 nM. For the same molecule, the EC50 [4] was 2000 nM, the EC50 [5] was 1260 nM and the EC50 [6] was 5.01 µM. For the same molecule, the EC50 [7] was 2510 nM.
